# Test results from article PMC8802628, “Selective activation of PFKL suppresses the phagocytic oxidative burst” (Cell, 2021).
# Experiments:
# [1] = tested on: IL-1β; assay: GSDMD-dependent IL-1β release from monocytes; type: cell-based, human; settings: nigericin or poly(dA-dT)
# Experimental: Primary human monocytes were primed with 1 μg/mL ultrapure LPS and 1μg/mL Pam3CSK4 for 3 h. THP-1 cells were primed with 1 μg/mL Pam3CSK4 for 4 h. Primed cells (1 × 10^5) were treated for 1 h with DMSO vehicle, 5 μM LDC7559 (unless indicated otherwise), 10 μM MCC950, or 50 μM VX765, and then for 1 h with 10 μg/mL nigericin, or 25 μg/mL LPS (electroporated using the NEON electroporation system; ThermoFisher Scientific), or they were transfected over 3 h with 1 μg/mL poly(dA-dT) using lipofectamine 2000 (0.5 μL/well).
# LDH released into the culture medium was measured 1-3 h post-activation using a CellTox Green Cytotoxicity assay (Promega). IL-1β secretion was measured using a MSD Cytokine Assay, 96-well multi-array Tissue Culture Kit (Meso Scale Discovery). For immunoblotting, monocytes (2 × 10^6) were treated with 10-50 μM LCD7559 or 50 μM VX765 and electroporated with 25 μg/mL LPS using the NEON electroporation system. Cells were lysed after 1 h using lysis buffer (50 mM Tris pH 7.4, 150 mM NaCl, 10% glycerol, 1% NP-40, 1 mM MgCl and 1X Roche cOmplete protease inhibitor cocktail) and protein concentration was determined via BCA protein assay (Peirce). Antibodies for immunoblotting were GSDMD (L60, Cell Signaling Technologies), cleaved GSDMD-Asp275 (E7H9G, Cell Signaling Technologies) and GAPDH (14C10, Cell Signaling Technologies).
# [2] = target: T1, recombinant NE (Homo sapiens, UniProt P08246); assay: NE activity assay; type: biochemical
# T1 construct: purchased Abcam ab91099
# Experimental: NA-11 and LDC7559 were incubated at the indicated concentrations with 25 ng of recombinant NE for 20 min. NE activity was measured using a fluorescence NE activity assay kit (Abcam).
# [3] = tested on: human bronchial epithelial cells (HBECs); assay: Epithelial barrier tissue damage assay (FITC-dextran); type: cell-based; settings: PMA-activated neutrophils on HBECs
# Experimental: Human bronchial epithelial cells (HBECs) (4 × 10^4 in […] complete PneumaCult-Ex plus medium) were added to a HTS Transwell-96 permeable support plate (polyester membrane with a 0.4 μm pores) and immersed in receiver plates containing 150 μL of complete PneumaCult-Ex plus medium for 3 days. The medium on confluent monolayers was then replaced with RPMI medium containing neutrophils (4 × 10^4) in RPMI buffer that were previously treated with 5 μM NA-11, 100 μM apocynin, 5 μM NA-4, or DMSO vehicle and then activated with 100 nM PMA. The transwell plate was cultured in a new receiver plate containing 150 μL Hank’s balanced salt solution (HBSS) for 2 h. 10 μL of DMEM supplemented with 5% FBS and 2 mM L-glutamine were added to each well and the plate was incubated for additional 18 h. To measure the permeability of the epithelial barrier, FITC-dextran (200 μg/mL) and DNase-1 (22 Units/mL) were added to the apical side for 1 h. FITC-dextran in the receiver plate was measured (ex: 494 em: 521).
# [4] = tested on: MEK or ERK; assay: PMA-induced MEK/ERK activation in neutrophils (western blot); type: cell-based, human
# Experimental: Figure S3. Chemoproteomic analysis of covalent crosslinking using photolabeling probe PALP1, related to Figure 2
# (A) Volcano plots of the fold change in peptides detected after afﬁnity pull-downs using PALP1 and PALP6. P values were calculated by Student’s t test across
# three replicates. (B and C) Spectral counts of all PFKL (B) or TBB4B (C) peptides across replicates (left) or with individual peptides distinguished by color (right). (D)
# Activity of recombinant NAMPT. Bars represent the mean ± s.d. of 3 independent experiments. (E) western blots of PMNs pretreated with 0.5 mM NA-11 or 1 mM
# MEK1/2 inhibitor U0126 for 30 min, and then activated with 50 nM PMA for 30 min. Results are representative of 3 independent experiments.
# (1 picture or pasted object on this page, not shown here)
# T1 sequence (P08246 30-267): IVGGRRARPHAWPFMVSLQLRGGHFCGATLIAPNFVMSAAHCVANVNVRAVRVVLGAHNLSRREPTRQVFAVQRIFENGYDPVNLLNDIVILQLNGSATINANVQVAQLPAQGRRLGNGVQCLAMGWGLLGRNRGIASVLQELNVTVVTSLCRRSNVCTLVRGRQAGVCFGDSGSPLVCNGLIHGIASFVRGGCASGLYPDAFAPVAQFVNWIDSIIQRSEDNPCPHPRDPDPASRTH
SMILES,GSDMD-dependent release of IL-1β [1],inhibition of recombinant NE [2],protection of epithelial layer from neutrophil-induced oxidative damage [3],PMA-induced activation of MEK or ERK [4]
"COc1ccccc1-c1cc2n(n1)Cc1ccc(NC(C)=O)cc1OC2 [LDC7559, reference compound]",occurred normally,neither LDC7559 nor NA-11 inhibited recombinant NE,–,–
CC(=O)Nc1ccc2c(c1)OCc1cc(-c3ccccc3C#CCCCO)nn1C2 [NA-11],–,neither LDC7559 nor NA-11 inhibited recombinant NE,protected the epithelial layer,did not perturb PMA-induced activation of MEK or ERK
